system: hematopoietic colony formation; experiment: Hematopoietic colony formation (CFC assay); type: cell-based; details: not given
Experimental: CFC assays (colony-forming unit-granulocyte monocyte (CFU-GM), burst-forming unit-erythroid (BFU-E), and colony-forming unit-granulocyte erythroid monocyte megakaryocyte (CFU-GEMM) were performed using MethoCult GF M3434 (Stemcell Technologies), as we have previously described^1,5. For all in vitro assays, BM CD34^−KSL cells, KSL cells, and Lin cells were cultured in TSF media (IMDM, 10% FBS, 1% pen-strep, 20 ng/mL recombinant mouse Thrombopoietin (TPO), 125 ng/mL recombinant mouse Stem Cell Factor (SCF), 50 ng/mL recombinant mouse Flt3 ligand) and treated as described. Recombinant mouse SCF, Flt-3 ligand, and TPO were purchased from R&D Systems. For competitive repopulation assays, BM cells were isolated from donor 10-12 week old female CD45.2^+ mice. Recipient 10 week old female CD45.1^+ B6.SJL mice were irradiated with 950 cGy TBI using a Cs137 irradiator, and donor BM cells were administered via tail vein injection along with a competing dose of 1×10^5 non-irradiated host BM cells. Multilineage donor hematopoietic cell engraftment was measured in the PB by flow cytometry.

| SMILES | Hematopoietic colony formation |
| --- | --- |
| O=C(/C=C\Nc1cccc(C(F)(F)F)c1)c1ccccc1 [DJ003] | increases hematopoietic colony formation |

molecular target: T1, PTPRS (Homo sapiens, UniProt Q13332); experiment: In vitro phosphatase assay (modified Malachite Green Assay); type: biochemical; details: substrate titration of PTPσ; Vmax inhibited, Km constant
T1 construct: The two interacellular catalytic domains (D1D2) of PTPRS were cloned into a pET28a vector; made in house; host or cells: E. coli BL21
T1 sequence (Q13332 1304-1948 limits assumed): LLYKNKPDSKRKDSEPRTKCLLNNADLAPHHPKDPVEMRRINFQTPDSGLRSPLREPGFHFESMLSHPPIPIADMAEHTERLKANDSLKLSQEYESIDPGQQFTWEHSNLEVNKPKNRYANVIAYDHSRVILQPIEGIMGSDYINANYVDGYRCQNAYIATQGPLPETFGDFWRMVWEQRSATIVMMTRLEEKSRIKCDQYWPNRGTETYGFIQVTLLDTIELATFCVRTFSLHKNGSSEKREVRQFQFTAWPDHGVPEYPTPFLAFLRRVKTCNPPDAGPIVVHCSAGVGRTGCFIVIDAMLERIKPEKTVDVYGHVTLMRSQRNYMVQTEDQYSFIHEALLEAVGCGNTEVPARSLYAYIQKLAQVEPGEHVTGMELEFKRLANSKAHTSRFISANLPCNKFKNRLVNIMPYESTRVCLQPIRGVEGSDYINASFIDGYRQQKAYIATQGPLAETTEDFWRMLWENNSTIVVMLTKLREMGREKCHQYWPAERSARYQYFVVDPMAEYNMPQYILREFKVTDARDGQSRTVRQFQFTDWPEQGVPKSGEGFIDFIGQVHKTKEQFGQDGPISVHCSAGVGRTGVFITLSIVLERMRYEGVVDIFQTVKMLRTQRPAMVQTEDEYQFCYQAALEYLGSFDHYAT
Experimental: The two interacellular catalytic domains (D1D2) of PTPRS were cloned into a pET28a vector and overexpressed in E. coli BL21 and purified as described in Jeon T J, et al. Structure of the Catalytic Domain of Protein Tyrosine Phosphatase Sigma in the Sulfenic Acid Form. Molecules and Cells. 2013; 36(1):55-61. doi:10.1007/s10059-013-0033-x. Enzymatic activity of PTPRS was assayed using a modified version of the Malachite Green Assay (described in Lorenz U. Protein Tyrosine Phosphatase Assays. Current protocols in immunology/edited by John E Coligan. [et al]. 2011; CHAPTER: Unit-11.7. doi:10.1002/0471142735.im1107s93) and the Tyrosine Phosphatase Assay Kit (Promega Coorperation). Unless stated otherwise, standard assays were carried out using 50 nM PTPRS protein in 1× Buffer (10 mM Tris, 5 mM MgCl2, 10 mM NaCl, 0.02% Tween) and Tyr Phosphopeptide as substrate (100 uM for FIG. 1 and 50-1200 uM in FIG. 2). […]
For IC50 determination, rates normalized relative to uninhibited controls (DMSO) were plotted against compound concentration and fitted using a four-parameter nonlinear regression curve fit ((y=[(A−D)(1+{xC−1}B)−1]+D), (Prism 6.0, Graphpad Software). For mechanism studies and determination of the enyzme's Km and Vmax, data were analyzed using a nonlinear regression fit according to classical Mechaelis-Menten kinetics model Y=Vmax*X/(Km+X) (Prism 6.0, Graphpad Software).

| SMILES | Mechanism of inhibition |
| --- | --- |
| O=C(/C=C\Nc1cccc([N+](=O)[O-])c1)c1ccccc1 [DJ001, (Z)-3-((3-nitrophenyl)amino)-1-phenylprop-2-en-1-one] | classical noncompetitive inhibitor |

system: Rac1; experiment: Rac1 activation assay (G-LISA); type: cell-based; details: cells incubated 2 minutes at 1 and 10 μg/mL
Experimental: Cell cultures were incubated with each tested compound for 2 minutes at concentrations of 1 and 10 μg/mL, after which the cells were tested for Rac1 activation using a G-LISA activation assay. The cells were lysed and the lysates introduced into wells containing Rac-GTP-binding protein, then sequentially incubated with anti-Rac1 antibody and a horseradish peroxidase-linked secondary antibody. The amount of horseradish peroxidase was then quantitated to evaluate the Rac1 activation potency of each compound studied.

| SMILES | Rac1 Activation |
| --- | --- |
| O=C(/C=C\Nc1cccc([N+](=O)[O-])c1)c1ccccc1 [DJ001, (Z)-3-((3-nitrophenyl)amino)-1-phenylprop-2-en-1-one] | yes |
| O=C(/C=C\Nc1cccc(F)c1)c1ccccc1 [DJ002] | no |
| O=C(/C=C\Nc1cccc(C(F)(F)F)c1)c1ccccc1 [DJ003] | yes |
| Cc1cccc(N/C=C\C(=O)c2ccccc2)c1 [DJ004] | yes |
| COc1cccc(N/C=C\C(=O)c2ccccc2)c1 [DJ005] | no |
| CC(=O)c1cccc(N/C=C\C(=O)c2ccccc2)c1 [DJ006] | no |
| O=C(/C=C\Nc1cccc(-c2ccccc2)c1)c1ccccc1 [DJ007] | no |
| CN(C)c1cccc(N/C=C\C(=O)c2ccccc2)c1 [DJ008] | no |
| O=C(/C=C\Nc1cc(F)cc(F)c1)c1ccccc1 [DJ009, (Z)-3-((3,5-difluorophenyl)amino)-1-phenylprop-2-en-1-one] | yes |
| Cc1cc(C)cc(N/C=C\C(=O)c2ccccc2)c1 [DJ011] | yes |
| COc1cc(N/C=C\C(=O)c2ccccc2)cc(OC)c1 [DJ012] | yes |
| O=C(/C=C\Nc1ccccc1)c1ccccc1 [DJ013] | yes |
| CC(C)(C)[Si](C)(C)Oc1cccc(N/C=C\C(=O)c2ccccc2)c1 [DJ014] | yes |
| O=C(/C=C\Nc1cccc(O)c1)c1ccccc1 [DJ015] | yes |
| CN(C)S(=O)(=O)c1cccc(N/C=C\C(=O)c2ccccc2)c1 [DJ016] | no |
| CCCCN/C=C\C(=O)c1ccccc1 [DJ017] | no |
| O=C(/C=C\NCc1ccco1)c1ccccc1 [DJ018] | no |
| CC(C)(C)N/C=C\C(=O)c1ccccc1 [DJ019] | no |

system: irradiated mice; experiment: Survival and HSC regeneration of irradiated mice; type: in vivo; details: irradiated mice
From the text: (§1) A) CFU-GEMMs produced by TSF media vs. TSF+GJ001 (p=0.001). B) Percentage of BM KSL cells expressing Rac1GTP (p=0.008). C) Survival of mice irradiated with 750 cGy followed by treatment with DJ001 or vehicle (p=0.0007). D) % BM KSL cells (blue) and % ckit^+sca-1^−lin^− progenitors (gray) at day +21 in irradiated mice.
10 week old female C57BL/6 mice were irradiated with 750 cGy TBI, which is lethal for approximately 50% of C57BL/6 mice by day +30 (LD50/30), using a Shepherd Cesium-137 irradiator. Twenty four hours post-irradiation, mice were administered daily subcutaneous injections of 5 mg/kg DJ001 (or DJ009) or vehicle in a volume of 100 μL for 10 days. DJ001 injections were prepared in PBS, 0.5% Tween 80, and 10% DMSO. Corresponding vehicle injections contained PBS, 10% DMSO and 0.5% Tween 80. PB complete blood counts were measured using a Hemavet 950 instrument (Drew Scientific) at day +10 post-irradiation. For hematopoietic analysis, BM cells were collected at day +10 post-irradiation. To study whether DJ001 increased survival rates through activation of RAC signaling, the RAC inhibitor, EHT1864 (Selleckchem), was dissolved in PBS and administered intraperitoneally, 40 mg/kg every other day, to 750 cGy irradiated mice until day +10. For DJ009 studies, ten week old female C57BL/6 mice were irradiated with 550 cGy TBI and then given daily subcutaneous injections of 5 mg/kg of DJ009 or vehicle in a volume of 100 μL for 3 days. DJ009 injections were prepared in PBS, 0.5% Tween 80, and 10% DMSO. Vehicle injections contained 10% DMSO and 0.5% Tween 80. At day +3 post 550 cGy irradiation, we collected PB and BM cells for CBCs and hematopoietic analysis. Exemplary results of this assay are depicted in FIG. 8 and FIG. 17.

| SMILES | HSC regeneration in irradiated mice |
| --- | --- |
| O=C(/C=C\Nc1cccc([N+](=O)[O-])c1)c1ccccc1 [DJ001, (Z)-3-((3-nitrophenyl)amino)-1-phenylprop-2-en-1-one] | accelerates HSC regeneration |

same assay, conditions: lethal dose irradiation (750 cGy)

| SMILES | Survival of irradiated mice |
| --- | --- |
| O=C(/C=C\Nc1cccc([N+](=O)[O-])c1)c1ccccc1 [DJ001, (Z)-3-((3-nitrophenyl)amino)-1-phenylprop-2-en-1-one] | dramatically increases mice survival |
| O=C(/C=C\Nc1cccc(C(F)(F)F)c1)c1ccccc1 [DJ003] | improves survival of irradiated mice |

system: Rac1; experiment: Rac1 signaling in HSCs (BM KSL cells expressing Rac1GTP); type: cell-based; details: not given
Experimental: as §1
Intracellular flow cytometric analysis was performed on irradiated (300 cGy) or non-irradiated, sorted KSL cells after treatment with 1 μg/mL DJ001 or control (equal volumes of DMSO) for 24 hours. At 24 hours after irradiation, cells were fixed with 4% PFA for 10 min, followed by permeabilization using 0.25% saponin in PBS. Cells were washed again and stained with antibody at the recommended concentrations for 30 minutes at room temperature. Intracellular antibodies and phospho-flow antibodies used were: FITC-conjugated anti-BCL-XL (Abcam #ab26148), active RAC1-GTP antibody (NewEast Biosciences #26903), and anti-PAK1 (phospho S144)+PAK2 (phospho S141)+PAK3 (phospho S154) antibody (Abcam #ab40795).

| SMILES | Rac1 signaling in HSCs |
| --- | --- |
| O=C(/C=C\Nc1cccc([N+](=O)[O-])c1)c1ccccc1 [DJ001, (Z)-3-((3-nitrophenyl)amino)-1-phenylprop-2-en-1-one] | activates Rac1 signaling |

Reference: patent US20210188763A1, “COMPOUNDS AND METHODS FOR HEMATOPOIETIC REGENERATION” (The Regents of the University of California, priority 2017, published 2021)
